Patent US6858622B2, “Cycloalkano-indole and -azaindole derivatives” (Bayer Aktiengesellschaft, priority 1994, dated 2005)

Columns and labels:
VLDL secretion = assay: Determination of the VLDL secretion in vivo in the hamster (Triton WR-1339 triglyceride rise); parameters: species or system golden hamsters; conditions: Mesocricetus auratus, po, VLDL secretion measured as triglyceride rise after Triton WR-1339
Method: 2. Determination of the VLDL Secretion In Vivo in the Hamster
The effect of the test substances on VLDL secretion in vivo is investigated in the hamster. To do this, golden hamsters are anaesthetized with Ketaset (83 mg/kg s.c.) and Nembutal (50 mg/kg i.p.) after premedication with atropine ([…] s.c.). When the animals have become reflex-free, the jugular vein is exposed and cannulated. 0.25 ml/kg of a 20% strength solution of Triton WR-1339 in physiological saline solution is then administered. This detergent inhibits the lipoprotein lipase and thus leads to a rise in the triglyceride level as a result of a lack of catabolism of secreted VLDL particles. This triglyceride rise can be used as a measure of the VLDL secretion rate.
Blood is taken from the animals before and also one and two hours after administration of the detergent by puncture of the retroorbital venous plexus. […] The triglyceride concentration in the serum thus obtained is determined with the aid of a modified commercially available enzyme test (Merckotest® triglyceride No. 14354). […] The optical density is then determined at a wavelength of 492 nm in an automatic plate-reading apparatus (SLT Spectra). […] The triglyceride concentration contained in the samples is determined with the aid of a standard curve measured in parallel. […]

[1] = system: release of ApoB-100-associated lipoproteins from HepG2 cells; assay: Inhibition of the release of ApoB-100-associated lipoproteins from liver cells (HepG2, anti-LDL immunoassay); format: cell-based; conditions: Homo sapiens; substance concentration at which light absorption at 450 nm (ApoB-100-associated particles in HepG2 supernatant) is inhibited by 50% vs solvent control
Method: I. Inhibition of the Release of ApoB-100-Associated Lipoproteins
The test for detecting the inhibition of the release of ApoB-100-associated lipoproteins from liver cells was carried out in vitro using cultured liver cells, preferably using cells of the human line HepG2. These cells are cultured under standard conditions in medium for the culture of eukaryotic cells, preferably in RPMI 1640 with 10% foetal calf serum. HepG2 cells synthesize and secrete into the culture supernatant ApoB-100-associated lipoprotein particles which in principle are built up in a similar manner to the VLDL and LDL particles which are to be found in the plasma.
These particles can be detected using an immunoassay for human LDL. This immunoassay is carried out using antibodies which have been induced against human LDL in rabbits under standard conditions. The anti-LDL antibodies (rabbit anti-LDL Ab) were purified by affinity chromatography on an immunosorbent using human LDL. […] The immune complex located on the plastic surface is detected using monoclonal antibodies which have been induced against human LDL and purified according to standard conditions. […] After acidification of the reaction mixture with H2SO4, the specific light absorption at 450 nm is determined, which is a measure of the amount of ApoB-100-associated particles which have been secreted into the culture supernatant by the HepG2 cells. […]

SMILES	ED50 (VLDL secretion)	IC50 [1]
Cc1cc(C)c2c3c(n(Cc4ccc(C(C(=O)N[C@@H](CO)c5ccccc5)C5CCCC5)cc4)c2n1)CCCC3 (single isomer, unassigned) [Ex. No. 2]	10 to 15 mg/kg	–
Cc1cc(C)c2c3c(n(Cc4ccc(C(C(=O)N[C@@H](CO)c5ccccc5)C5CCCC5)cc4)c2n1)CCCC3 (stereo partly drawn) [Ex. No. 1, 2-S— and 2-(R)-2-[4-(2,4Dimethyl-5,6,7,8-tetrahydro-α-carbolin-9-yl)-methyl-phenyl]-2-cyclopentyl-acetic acid N—[(R)-phenylglycinolamide]]	–	28 nM
